“And” between values parts separate entries of the source, which are not always exact repeats. Equal entries are not always repeated. Some results are limits rather than exact numbers.

In one test the target is MAPK14 (human) (UniProt Q16539). Kind of test: LPS-induced TNF-alpha Release Inhibition (Human Blood).
The next test concerns the target MAPK14 (UniProt Q16539). Kind of test: p38-alpha Kinase Inhibition.
In test [1] the test system is MAPK14 (rat). Put plainly: Secondary Paw Swelling Inhibition (Arthritis Rat).
Test [2] has as its system MAPK14 (rat).

MAPK14 (human), sequence (Q16539 whole entry, looked up): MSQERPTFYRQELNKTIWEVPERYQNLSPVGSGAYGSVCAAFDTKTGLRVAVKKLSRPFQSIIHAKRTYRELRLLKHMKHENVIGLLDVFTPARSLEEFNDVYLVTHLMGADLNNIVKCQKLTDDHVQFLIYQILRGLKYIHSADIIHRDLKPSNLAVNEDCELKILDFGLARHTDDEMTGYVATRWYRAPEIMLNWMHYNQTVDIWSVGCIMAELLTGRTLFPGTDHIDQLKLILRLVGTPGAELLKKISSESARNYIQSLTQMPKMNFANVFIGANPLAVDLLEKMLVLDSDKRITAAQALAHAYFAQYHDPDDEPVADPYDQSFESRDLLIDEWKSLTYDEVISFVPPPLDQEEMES
MAPK14, sequence (Q16539 whole entry, looked up): as above

Take `Nc1nccc(-c2[nH]c(C3CCNCC3)nc2-c2cccc(C(F)(F)F)c2)n1`: at MAPK14 (human), the IC50 (usually the concentration that gives 50% inhibition) stood at 190 nM.

Consider `Nc1nccc(-c2[nH]c(-c3ccccc3)nc2-c2ccccc2)n1`, for which, at MAPK14 (human), the IC50 was greater than 100000 nM. As to `Fc1ccc(-c2nc(C3CCNCC3)[nH]c2-c2ccncc2)cc1`, the IC50 on MAPK14 (human) was 175 nM.

At MAPK14 (human), `Fc1ccc(-c2nc(C3CCCCC3)[nH]c2-c2ccncc2)cc1` gave an IC50 of 34 nM. In the case of `CNc1nccc(-c2[nH]c(-c3ccccc3)nc2-c2ccccc2)n1`, on MAPK14 (human), the half-maximal inhibitory concentration (IC50) is greater than 100000 nM.

In turn, `COc1ccc(CNc2nccc(-c3[nH]c(-c4ccccc4)nc3-c3ccccc3)n2)cc1` showed an IC50 at MAPK14 (human) greater than 100000 nM. As for `C[C@@H](Nc1nccc(-c2[nH]c(-c3ccccc3)nc2-c2cccc(C(F)(F)F)c2)n1)c1ccccc1`, the half-maximal inhibitory concentration (IC50) at MAPK14 (human) was 0.4 nM; on MAPK14 it was 0.97 nM.

`COc1ccc(CNc2nccc(-c3[nH]c(C4CCNCC4)nc3-c3cccc(C(F)(F)F)c3)n2)cc1`: the IC50 against MAPK14 (human) turned out to be 290 nM.

In the case of `FC(F)(F)c1cccc(-c2nc(-c3ccccc3)[nH]c2-c2ccncc2)c1`, at MAPK14 (human), the IC50 is greater than 100000 nM. Turning to `C[C@H](Nc1cc(-c2c(-c3cccc(C(F)(F)F)c3)nc(C3CCNCC3)n2C)ccn1)c1ccccc1`, in the test on MAPK14 (rat) [1], the ED50 (in general, the midpoint of the dose-response relation) came to 8.2 mg/kg/day. In addition, in the test on MAPK14 (rat) [1] (dose or concentration not given here), the inhibition (commonly the percentage by which the read-out fell short of the control) was found to be 76%. Moreover, the ID50 with MAPK14 (rat) [2] worked out at 17.5 mg/kg/day. Take `c1ccc(-c2nc(-c3ccccc3)c(-c3ccncn3)[nH]2)cc1`: the IC50 against MAPK14 (human) is greater than 100000 nM. Take `COc1ccc2c(c1)c(CC(=O)O)c(C)n2C(=O)c1ccc(Cl)cc1`: the score in the test with MAPK14 (rat) [1] was 5.5 and 4.9.

On MAPK14 (human), `Fc1ccc(-c2nc(C3CCCNC3)[nH]c2-c2ccncc2)cc1` (stereo not given) yielded an IC50 of 585 nM. Consider `Fc1ccc(-c2nc[nH]c2-c2ccncc2)cc1`, for which, at MAPK14 (human), the half-maximal inhibitory concentration (IC50) was greater than 10000 nM. Regarding `C[C@H](Nc1nccc(-c2[nH]c(-c3ccccc3)nc2-c2cccc(C(F)(F)F)c2)n1)c1ccccc1`, the IC50 at MAPK14 (human) worked out at 6 nM; against MAPK14 it was 0.75 nM.

As to `C[C@H](Nc1nccc(-c2nc(C3CCNCC3)n(C)c2-c2cccc(C(F)(F)F)c2)n1)c1ccccc1`, the IC50 at MAPK14 (human) worked out at 24000 nM.

Source of the values: the Kinase Knowledgebase extract (Sharma et al. 2016).
